In article doi:10.1101/2025.06.07.658027v2 (biorxiv, 2025):

Legend:
Assay in all cases: two-electrode voltage clamp, Xenopus oocytes
Format in all cases: cell-based
AalbOR10 = target: T1, AalbOR10 (Aedes albopictus, UniProt A0ABM1Y0Z3)
T1 sequence (A0ABM1Y0Z3 1-403): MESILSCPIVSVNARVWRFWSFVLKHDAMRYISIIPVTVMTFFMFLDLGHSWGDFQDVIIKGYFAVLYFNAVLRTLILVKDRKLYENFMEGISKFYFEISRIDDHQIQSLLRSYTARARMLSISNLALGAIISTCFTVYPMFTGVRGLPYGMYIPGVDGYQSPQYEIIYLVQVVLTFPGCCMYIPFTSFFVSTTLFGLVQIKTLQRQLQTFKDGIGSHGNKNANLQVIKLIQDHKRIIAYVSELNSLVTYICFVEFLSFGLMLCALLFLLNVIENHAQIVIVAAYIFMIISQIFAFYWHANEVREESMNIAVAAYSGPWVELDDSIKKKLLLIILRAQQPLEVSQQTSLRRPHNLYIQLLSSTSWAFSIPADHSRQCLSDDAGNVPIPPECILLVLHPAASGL
T1 sequence (A0ABM1ZN50 1-479 partner): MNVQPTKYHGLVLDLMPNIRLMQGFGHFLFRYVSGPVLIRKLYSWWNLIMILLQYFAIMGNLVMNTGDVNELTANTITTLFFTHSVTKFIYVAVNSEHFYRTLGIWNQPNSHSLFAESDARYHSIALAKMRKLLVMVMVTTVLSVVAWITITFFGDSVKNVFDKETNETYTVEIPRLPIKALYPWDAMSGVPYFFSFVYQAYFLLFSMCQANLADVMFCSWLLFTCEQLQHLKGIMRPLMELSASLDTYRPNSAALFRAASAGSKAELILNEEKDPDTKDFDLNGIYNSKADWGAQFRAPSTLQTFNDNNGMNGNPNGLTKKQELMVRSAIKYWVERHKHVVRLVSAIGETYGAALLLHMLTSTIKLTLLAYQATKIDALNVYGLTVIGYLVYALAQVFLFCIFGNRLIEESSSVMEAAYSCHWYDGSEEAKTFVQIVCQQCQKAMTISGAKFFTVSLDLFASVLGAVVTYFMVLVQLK

AalbOR2 = target: T2, AalbOR2 (Aedes albopictus, UniProt A0ABM1YVB6)
T2 sequence (A0ABM1YVB6 1-376): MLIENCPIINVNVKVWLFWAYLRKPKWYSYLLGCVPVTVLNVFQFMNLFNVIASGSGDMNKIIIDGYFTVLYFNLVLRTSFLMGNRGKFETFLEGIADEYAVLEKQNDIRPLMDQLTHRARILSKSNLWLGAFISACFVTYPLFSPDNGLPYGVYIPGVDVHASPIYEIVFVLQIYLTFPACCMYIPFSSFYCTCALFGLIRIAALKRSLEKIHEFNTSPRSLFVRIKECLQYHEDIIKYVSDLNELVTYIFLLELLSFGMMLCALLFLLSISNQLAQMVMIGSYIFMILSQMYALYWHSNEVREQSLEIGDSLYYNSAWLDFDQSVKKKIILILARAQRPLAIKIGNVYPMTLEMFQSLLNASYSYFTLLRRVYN
T2 sequence (A0ABM1ZN50 1-479 partner): T1 sequence (A0ABM1ZN50 1-479 partner)

AalbOR9 = target: T3, AalbOR9 (Aedes albopictus, UniProt A0ABM1YMM4)
T3 sequence (A0ABM1YMM4 1-377): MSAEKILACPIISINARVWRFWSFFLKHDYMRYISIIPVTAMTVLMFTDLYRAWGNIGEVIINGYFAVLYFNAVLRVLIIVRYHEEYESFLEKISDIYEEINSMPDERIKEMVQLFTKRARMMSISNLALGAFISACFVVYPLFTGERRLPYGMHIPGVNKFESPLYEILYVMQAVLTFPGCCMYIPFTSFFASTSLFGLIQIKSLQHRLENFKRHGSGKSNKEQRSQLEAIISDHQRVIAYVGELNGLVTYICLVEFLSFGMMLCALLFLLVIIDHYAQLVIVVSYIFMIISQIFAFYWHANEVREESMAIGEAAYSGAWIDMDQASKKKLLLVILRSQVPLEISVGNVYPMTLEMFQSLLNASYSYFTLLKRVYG
T3 sequence (A0ABM1ZN50 1-479 partner): T1 sequence (A0ABM1ZN50 1-479 partner)

| EC50 (AalbOR10) [µM] | EC50 (AalbOR2) [µM] | EC50 (AalbOR9) [µM] | Structure (SMILES) |
| --- | --- | --- | --- |
| 3.9 | 10.1 | 0.054 | Cc1c[nH]c2ccccc12 [skatole] |
| 23.7 | 0.77 | 1.7 | c1ccc2[nH]ccc2c1 [indole] |
